Target: T1, enzyme R39 (soluble exocellular D-alanyl-D-alanine carboxypeptidase produced by Actinomadura R39) (Actinomadura sp., UniProt P39045)
T1 construct: soluble exocellular D-alanyl-D-alanine carboxypeptidase produced by Actinomadura R39, obtained by the procedure described in J.-M. Frere et al; made in house; host or cells: Actinomadura R39 (natural producer, secreted enzyme)
Assay: Test 2, sensitive test (7 minutes): strip test for β-lactam antibiotics in milk using enzyme R39
Type: binding
Conditions: for Intensity 1st band: scale 0 to 10, reference band 6, 47° C., 5 min incubation + 2 min migration
Procedure: The identifier used in this example is soluble exocellular D-alanyl-D-alanine carboxypeptidase produced by Actinomadura R39, obtained by the procedure described in J.-M. Frere et al., Antimicrobial Agents and Chemotherapy, 18(4), 506-510 (1980).
250 μl of an aqueous solution of enzyme R39 having a concentration of 1 mg/ml are dialysed for 24 hours against 500 ml of HNM buffer (Hepes 10 mM, pH 8, NaCl 10 mM, MgCl2 5 mM). To this dialysed solution of enzyme R39 are then added 2 ml of bicarbonate buffer (0.1 M sodium bicarbonate, pH 9) and 250 μl of a solution of N-hydroxysuccinimide 6-(biotinamido)caproic ester having a concentration of 5 mg/ml in anhydrous DMF. This solution is stirred gently in the LABINCO stirrer for tubes on a rotary axis (available from VEL, Belgium) at a rate of 2 revolutions/minute for 3 hours at room temperature and away from light. The solution thus obtained is dialysed against the HNM buffer ([…]) for 24 hours. In this way a solution of biotinylated enzyme R39 is obtained which is diluted in HNM-BSA buffer (Hepes 500 mM; pH 8, NaCl 500 mM, MgCl2 250 mM, BSA 10 mg/ml) to a concentration of 100 μg of enzyme R39 per ml of buffer. This solution is stored at −20° C.
As the marker use is made of particles of gold having a diameter of 40 nm on which a goat anti-biotin antibody has been deposited in the form of suspensions in a 2 mM aqueous sodium tetraborate solution, with a pH of 7.2, stabilized by 0.1% of sodium azide (available from British Biocell (Ref. GAB40)). The optical density of these suspensions at 520 nm is approximately 10 and the protein concentration is approximately 24 μg/ml.
The biotinylated enzyme R39 solution prepared in Example 2.2.1 is diluted 50 times with the HNM-BSA buffer (Hepes 500 mM, pH 8, NaCl 500 mM, MgCl2 250 mM, BSA 10 mg/ml). At room temperature, 17.5 parts by volume of this dilute biotinylated enzyme R39 solution, 9.27 parts by volume of the gold particle suspension used to label the enzyme R39 and 6 parts by volume of reference gold particle suspension are mixed (see Example 2.3).
The first capture substance makes it possible to fix the identifiers coupled with the free markers present in excess relative to the quantity of antibiotic present in the sample.
Assay devices containing membranes (2), (3) and (4) are used, assembled in accordance with the procedure described in Example 1.1. The membrane (3) of these devices carries on the proximal side the capture substance described in Example 2.4.1. and on the distal side the capture substance described in Example 2.4.2. The capture substances were deposited in accordance with the procedure described in Example 1.2.
Six samples of milk are prepared, containing 0; 2; 2.5; 3; 4 and 5 ppb, respectively, of penicillin G. Each of these solutions is then analysed as follows.
An aliquot is taken of 200 μl of milk sample and 32.8 μl of solution B prepared in Example 2.2.3, and is placed in an Eppendorf tube. This mixture is incubated at 47° C. for 5 minutes. An assay device is then placed vertically in the Eppendorf tube such that the first end of the assay device is in contact with the mixture. The mixture is allowed to migrate over the assay device while the assembly is incubated at 47° C. for 2 minutes.
An intensity value ranging from 0 to 10 is awarded to the bands detected, the value 10 being given to the most intense band and the value 0 being given to the least intense band. On this scale, a value 6 is awarded to the reference band. The intensity of the signal observed in the first detection band is inversely proportional to the quantity of penicillin G present in the sample.
In this example, the test is considered to be positive when the first band has an intensity which is lower than that of the reference band. The results shown in Table 2 indicate that this test makes it possible to detect in 7 minutes down to 2.5 ppb of penicillin G in a milk sample.

T1 sequence (P39045 50-515): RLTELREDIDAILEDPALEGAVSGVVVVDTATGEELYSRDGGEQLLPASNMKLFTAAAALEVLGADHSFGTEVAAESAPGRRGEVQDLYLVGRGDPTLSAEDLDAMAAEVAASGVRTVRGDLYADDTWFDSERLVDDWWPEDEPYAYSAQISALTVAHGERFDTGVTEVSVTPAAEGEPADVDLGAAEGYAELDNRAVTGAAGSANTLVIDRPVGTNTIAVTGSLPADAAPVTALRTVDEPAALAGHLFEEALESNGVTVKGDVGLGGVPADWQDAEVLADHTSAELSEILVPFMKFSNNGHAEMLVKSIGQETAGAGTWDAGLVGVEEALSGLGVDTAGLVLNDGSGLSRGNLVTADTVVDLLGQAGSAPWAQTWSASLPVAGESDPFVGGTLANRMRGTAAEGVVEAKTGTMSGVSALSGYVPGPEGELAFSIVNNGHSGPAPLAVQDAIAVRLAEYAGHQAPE

CC1(C)S[C@@H]2[C@H](NC(=O)Cc3ccccc3)C(=O)N2[C@H]1C(=O)O [Penicillin G, penicillin G]
Intensity 1st band (2 ppb penicillin G in milk): 7 | Intensity 1st band (2.5 ppb penicillin G in milk): 5 | Intensity 1st band (3 ppb penicillin G in milk): 4 | Intensity 1st band (4 ppb penicillin G in milk): 1 | Intensity 1st band (5 ppb penicillin G in milk): 0 | lowest concentration detected in a milk sample (in 7 minutes, positive when first band is less intense than reference band): 2.5 ppb
